In patent US20100041089A1, “IMPROVED METHOD FOR DETECTING CHEMICAL […]” (priority 2006, published 2010):

System: yeast genes (expressed mRNA)
Test: DNA chip measurement of expressed mRNA of yeast genes after culture with a toxic chemical substance
Type: cell-based, Saccharomyces cerevisiae S288C
Settings: for level of expressed mRNA in the presence of chemical substance / level in the absence of chemical substance: cultured two hours with the chemical substance; for The level of expressed mRNA in the presence of chemical substance/The level of expressed mRNA in the absence of chemical substance: cultured two hours with substance
Procedure, shortened: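 Fluorescence ratio, treated over untreated, read by chip scanner; ratio of two or more counted significant. Cells: S288C yeast, YPD, 25° C, chemical added at log phase for 2 h at growth-inhibiting, sublethal level. Cy3/Cy5-labeled cDNA from oligo-dT-purified mRNA.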

## Manganese ethylenebis(dithiocarbamate) [(8)]
Yeast gene YJL097W
  level of expressed mRNA in the presence of chemical substance / level in the absence of chemical substance: 0.8
Yeast gene YJL151C
  The level of expressed mRNA in the presence of chemical substance/The level of expressed mRNA in the absence of chemical substance: 0.8
Yeast gene YJL152W
  The level of expressed mRNA in the presence of chemical substance/The level of expressed mRNA in the absence of chemical substance: 0.7
Yeast gene YJL161W
  The level of expressed mRNA in the presence of chemical substance/The level of expressed mRNA in the absence of chemical substance: 1.4
Yeast gene YJL171C
  The level of expressed mRNA in the presence of chemical substance/The level of expressed mRNA in the absence of chemical substance: 0.9
Yeast gene YJR008W
  The level of expressed mRNA in the presence of chemical substance/The level of expressed mRNA in the absence of chemical substance: 1.1
Yeast gene YJR030C
  level of expressed mRNA in the presence of chemical substance / level in the absence of chemical substance: 0.9
Yeast gene YJR054W
  The level of expressed mRNA in the presence of chemical substance/The level of expressed mRNA in the absence of chemical substance: 1.6
Yeast gene YKL051W
  level of expressed mRNA in the presence of chemical substance / level in the absence of chemical substance: 0.8
Yeast gene YKL071W
  The level of expressed mRNA in the presence of chemical substance/The level of expressed mRNA in the absence of chemical substance: 24.7
Yeast gene YKL086W
  The level of expressed mRNA in the presence of chemical substance/The level of expressed mRNA in the absence of chemical substance: 1.1
Yeast gene YKL097C
  level of expressed mRNA in the presence of chemical substance / level in the absence of chemical substance: 0.4
Yeast gene YKL100C
  level of expressed mRNA in the presence of chemical substance / level in the absence of chemical substance: 0.7
Yeast gene YKL151C
  The level of expressed mRNA in the presence of chemical substance/The level of expressed mRNA in the absence of chemical substance: 1.0
Yeast gene YKL153W
  The level of expressed mRNA in the presence of chemical substance/The level of expressed mRNA in the absence of chemical substance: 0.7
Yeast gene YKL195W
  The level of expressed mRNA in the presence of chemical substance/The level of expressed mRNA in the absence of chemical substance: 1.2
Yeast gene YKR040C
  level of expressed mRNA in the presence of chemical substance / level in the absence of chemical substance: 1.0
Yeast gene YKR091W
  The level of expressed mRNA in the presence of chemical substance/The level of expressed mRNA in the absence of chemical substance: 1.3
Yeast gene YLR054C
  The level of expressed mRNA in the presence of chemical substance/The level of expressed mRNA in the absence of chemical substance: 1.1
Yeast gene YLR149C
  The level of expressed mRNA in the presence of chemical substance/The level of expressed mRNA in the absence of chemical substance: 1.1
Yeast gene YLR152C
  The level of expressed mRNA in the presence of chemical substance/The level of expressed mRNA in the absence of chemical substance: 1.2
Yeast gene YLR194C
  The level of expressed mRNA in the presence of chemical substance/The level of expressed mRNA in the absence of chemical substance: 1.0
Yeast gene YLR226W
  level of expressed mRNA in the presence of chemical substance / level in the absence of chemical substance: 1.3
Yeast gene YLR324W
  The level of expressed mRNA in the presence of chemical substance/The level of expressed mRNA in the absence of chemical substance: 1.0
Yeast gene YLR338W
  level of expressed mRNA in the presence of chemical substance / level in the absence of chemical substance: 0.8
Yeast gene YLR350W
  The level of expressed mRNA in the presence of chemical substance/The level of expressed mRNA in the absence of chemical substance: 1.0
Yeast gene YLR387C
  The level of expressed mRNA in the presence of chemical substance/The level of expressed mRNA in the absence of chemical substance: 1.4
Yeast gene YLR392C
  level of expressed mRNA in the presence of chemical substance / level in the absence of chemical substance: 1.3
Yeast gene YLR415C
  level of expressed mRNA in the presence of chemical substance / level in the absence of chemical substance: 0.9
Yeast gene YLR427W
  level of expressed mRNA in the presence of chemical substance / level in the absence of chemical substance: 1.1
Yeast gene YLR460C
  The level of expressed mRNA in the presence of chemical substance/The level of expressed mRNA in the absence of chemical substance: 8.1
Yeast gene YML013W
  level of expressed mRNA in the presence of chemical substance / level in the absence of chemical substance: 0.6
Yeast gene YML029W
  level of expressed mRNA in the presence of chemical substance / level in the absence of chemical substance: 0.9
Yeast gene YML041C
  level of expressed mRNA in the presence of chemical substance / level in the absence of chemical substance: 1.8
Yeast gene YML079W
  level of expressed mRNA in the presence of chemical substance / level in the absence of chemical substance: 1.2
Yeast gene YML117W
  The level of expressed mRNA in the presence of chemical substance/The level of expressed mRNA in the absence of chemical substance: 0.7
Yeast gene YMR009W
  The level of expressed mRNA in the presence of chemical substance/The level of expressed mRNA in the absence of chemical substance: 1.4
Yeast gene YMR067C
  The level of expressed mRNA in the presence of chemical substance/The level of expressed mRNA in the absence of chemical substance: 1.1
Yeast gene YMR068W
  level of expressed mRNA in the presence of chemical substance / level in the absence of chemical substance: 0.8
Yeast gene YMR071C
  level of expressed mRNA in the presence of chemical substance / level in the absence of chemical substance: 1.1
Yeast gene YMR090W
  The level of expressed mRNA in the presence of chemical substance/The level of expressed mRNA in the absence of chemical substance: 3.9
Yeast gene YMR095C
  The level of expressed mRNA in the presence of chemical substance/The level of expressed mRNA in the absence of chemical substance: 1.2
Yeast gene YMR097C
  The level of expressed mRNA in the presence of chemical substance/The level of expressed mRNA in the absence of chemical substance: 1.5
Yeast gene YMR102C
  The level of expressed mRNA in the presence of chemical substance/The level of expressed mRNA in the absence of chemical substance: 1.0
Yeast gene YMR107W
  The level of expressed mRNA in the presence of chemical substance/The level of expressed mRNA in the absence of chemical substance: 1.3
Yeast gene YMR160W
  level of expressed mRNA in the presence of chemical substance / level in the absence of chemical substance: 0.9
Yeast gene YMR180C
  The level of expressed mRNA in the presence of chemical substance/The level of expressed mRNA in the absence of chemical substance: 1.8
Yeast gene YMR184W
  The level of expressed mRNA in the presence of chemical substance/The level of expressed mRNA in the absence of chemical substance: 1.9
Yeast gene YMR191W
  The level of expressed mRNA in the presence of chemical substance/The level of expressed mRNA in the absence of chemical substance: 1.1
Yeast gene YMR295C
  The level of expressed mRNA in the presence of chemical substance/The level of expressed mRNA in the absence of chemical substance: 1.0
Yeast gene YMR316W
  The level of expressed mRNA in the presence of chemical substance/The level of expressed mRNA in the absence of chemical substance: 1.6
Yeast gene YNL026W
  level of expressed mRNA in the presence of chemical substance / level in the absence of chemical substance: 1.0
